In patent US7781591B2, “Substituted 3-cyanopyridines as protein kinase inhibitors” (Wyeth LLC, priority 2006, dated 2010):

Biological target: T1, human PKCθ full length enzyme (Homo sapiens, UniProt Q04759)
T1 construct: human PKCθ full length enzyme (Panvera Cat# P2996); purchased Panvera P2996
Assay: PKCθ IMAP assay (fluorescence polarization)
Type: biochemical
Conditions: human PKCθ full length enzyme, IMAP; average value; read-out: IC50 PKCθ IMAP

T1 sequence (Q04759 whole entry): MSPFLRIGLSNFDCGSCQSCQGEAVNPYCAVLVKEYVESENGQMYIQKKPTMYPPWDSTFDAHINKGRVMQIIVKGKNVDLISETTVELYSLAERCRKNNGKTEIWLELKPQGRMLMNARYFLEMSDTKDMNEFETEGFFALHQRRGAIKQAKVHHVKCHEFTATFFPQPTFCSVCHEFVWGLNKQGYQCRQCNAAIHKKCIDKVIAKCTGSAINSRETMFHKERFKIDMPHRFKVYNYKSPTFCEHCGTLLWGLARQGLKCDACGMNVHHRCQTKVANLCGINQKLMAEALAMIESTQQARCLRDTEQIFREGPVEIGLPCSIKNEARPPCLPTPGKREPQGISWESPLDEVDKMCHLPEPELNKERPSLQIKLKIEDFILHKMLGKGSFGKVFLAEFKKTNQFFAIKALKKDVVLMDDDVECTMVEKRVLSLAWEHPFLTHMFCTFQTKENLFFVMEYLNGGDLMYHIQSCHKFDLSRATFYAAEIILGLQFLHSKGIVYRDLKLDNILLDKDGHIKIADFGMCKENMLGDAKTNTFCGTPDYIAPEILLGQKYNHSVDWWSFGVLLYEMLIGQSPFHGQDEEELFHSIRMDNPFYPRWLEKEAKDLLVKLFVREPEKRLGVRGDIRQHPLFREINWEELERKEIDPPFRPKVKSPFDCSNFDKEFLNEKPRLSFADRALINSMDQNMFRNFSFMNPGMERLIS

Molecule | IC50
Cc1c(Nc2c(C#N)cncc2-c2ccc(CN3CCC(N4CCCCC4)CC3)o2)ccc2[nH]ccc12 [Compound 403, 5-[5-(1,4′-bipiperidin-1′-ylmethyl)-2-furyl]-4-[(4-methyl-1H-indol-5-yl)amino]nicotinonitrile] | 5 nM
COc1ccc(-c2cncc(C#N)c2NCCCN2CCN(C)CC2)cc1OC [Compound 440, 5-(3,4-dimethoxyphenyl)-4-{[3-(4-methylpiperazin-1-yl)propyl]amino}nicotinonitrile] | 14300 nM
N#Cc1cncc(-c2cc3cc(CN4CCCCC4)ccc3s2)c1Nc1cccc2[nH]ccc12 [Compound 283, 4-(1H-indol-4-ylamino)-5-[5-(piperidin-1-ylmethyl)-1-benzothien-2-yl]nicotinonitrile] | 2 nM
4-(1H-indol-4-ylamino)-5-[4-methoxy-3-(2-{[2-(1-methylpyrrolidin-2-yl)ethyl]amino}ethoxy)phenyl]nicotinonitrile [Compound 341] | 3 nM
Cc1cc2[nH]ccc2cc1Nc1c(C#N)cncc1-c1cc2cc(CN3CCN(C)CC3)ccc2o1 [Compound 497, 4-[(6-methyl-1H-indol-5-yl)amino]-5-{5-[(4-methylpiperazin-1-yl)methyl]-1-benzofuran-2-yl}nicotinonitrile] | 7 nM
Cc1c(Nc2c(C#N)cncc2-c2ccc(CN3CCN(C4CCCC4)CC3)o2)ccc2[nH]ccc12 [Compound 486, 5-{5-[(4-cyclopentylpiperazin-1-yl)methyl]-2-furyl}-4-[(4-methyl-1H-indol-5-yl)amino]nicotinonitrile] | 4 nM
COc1ccc(-c2cncc(C#N)c2NCC2CCN(C)CC2)cc1OC [Compound 448, 5-(3,4-dimethoxyphenyl)-4-{[(1-methylpiperidin-4-yl)methyl]amino}nicotinonitrile] | 14100 nM
Cc1c(Nc2c(C#N)cncc2-c2cc3ccccc3o2)cc(Cl)c2[nH]ccc12 [Compound 531, 5-(1-benzofuran-2-yl)-4-[(7-chloro-4-methyl-1H-indol-5-yl)amino]nicotinonitrile] | 20 nM
N#Cc1cncc(-c2cccc(-c3ccc(C(=O)NCCO)cc3)c2)c1Nc1cccc2[nH]ccc12 [Compound 216, 3′-[5-cyano-4-(1H-indol-4-ylamino)pyridin-3-yl]-N-(2-hydroxyethyl)biphenyl-4-carboxamide] | 50 nM
CNC(=O)c1ccc(-c2cccc(-c3cncc(C#N)c3Nc3ccc4[nH]ccc4c3)c2)cc1 [Compound 196, 3′-[5-cyano-4-(1H-indol-5-ylamino)pyridin-3-yl]-N-methylbiphenyl-4-carboxamide] | 460 nM
COc1ccc(-c2cncc(C#N)c2Nc2cccc3[nH]ccc23)cc1OCCN1CCCCC1 [Compound 248, 4-(1H-indol-4-ylamino)-5-[4-methoxy-3-(2-piperidin-1-ylethoxy)phenyl]nicotinonitrile] | 50 nM
COc1ccc(-c2cncc(C#N)c2NCCN2CCN(C)CC2)cc1OC [Compound 439, 5-(3,4-dimethoxyphenyl)-4-{[2-(4-methylpiperazin-1-yl)ethyl]amino}nicotinonitrile] | 5850 nM
CNCCNC(=O)c1ccc(-c2cccc(-c3cncc(C#N)c3Nc3ccc4[nH]ccc4c3)c2)cc1 [Compound 211, 3′-[5-cyano-4-(1H-indol-5-ylamino)pyridin-3-yl]-N-[2-(methylamino)ethyl]biphenyl-4-carboxamide] | 330 nM
Cc1c(Nc2c(C#N)cncc2-c2cnc(N3CCCCC3)nc2)ccc2[nH]ccc12 [Compound 510, 4-[(4-methyl-1H-indol-5-yl)amino]-5-(2-piperidin-1-ylpyrimidin-5-yl)nicotinonitrile] | 300 nM

Continued, values first:

IC50 | Molecule
11 nM | COCCOc1ccc(-c2cncc(C#N)c2Nc2ccc3[nH]ccc3c2C)cc1 [Compound 482, 5-[4-(2-methoxyethoxy)phenyl]-4-[(4-methyl-1H-indol-5-yl)amino]nicotinonitrile]
0.21 nM | Cc1c(Nc2c(C#N)cncc2-c2cc3cc(CO)ccc3o2)ccc2[nH]ccc12 [Compound 481, 5-[5-(hydroxymethyl)-1-benzofuran-2-yl]-4-[(4-methyl-1H-indol-5-yl)amino]nicotinonitrile]
36 nM | Cc1c(Nc2c(C#N)cncc2-c2cccc(N(C)C)c2)ccc2[nH]ccc12 [Compound 575, 5-[3-(dimethylamino)phenyl]-4-[(4-methyl-1H-indol-5-yl)amino]nicotinonitrile]
23 nM | Cc1c(Nc2c(C#N)cncc2-c2cc3ccccc3s2)ccc2[nH]ccc12 [Compound 514, 5-(1-benzothien-2-yl)-4-[(4-methyl-1H-indol-5-yl)amino]nicotinonitrile]
1 nM | Cc1c(Nc2c(C#N)cncc2-c2cc3cc(CN4CCCCC4)ccc3o2)ccc2[nH]ccc12 [Compound 461, 4-[(4-methyl-1H-indol-5-yl)amino]-5-[5-(piperidin-1-ylmethyl)-1-benzofuran-2-yl]nicotinonitrile]
60 nM | CCc1c(Nc2c(C#N)cncc2-c2ccc(OC)c(OC)c2)ccc2[nH]ccc12 [Compound 305, 5-(3,4-dimethoxyphenyl)-4-[(4-ethyl-1H-indol-5-yl)amino]nicotinonitrile]
179 nM | COc1ccc(-c2cncc(C#N)c2Nc2ccc(C)c3cc[nH]c23)cc1OC [Compound 530, 5-(3,4-dimethoxyphenyl)-4-[(4-methyl-1H-indol-7-yl)amino]nicotinonitrile]
16 nM | Cc1c(Nc2c(C#N)cncc2-c2ccc([N+](=O)[O-])cc2)ccc2[nH]ccc12 [Compound 570, 4-[(4-methyl-1H-indol-5-yl)amino]-5-(4-nitrophenyl)nicotinonitrile]
50 nM | Cc1c(Nc2c(C#N)cncc2-c2ccc(NCCN3CCOCC3)nc2)ccc2[nH]ccc12 [Compound 362, 4-[(4-methyl-1H-indol-5-yl)amino]-6′-[(2-morpholin-4-ylethyl)amino]-3,3′bipyridine-5-carbonitrile]
28 nM | COc1ccc(C=O)cc1-c1cncc(C#N)c1Nc1ccc2[nH]ccc2c1C [Compound 551, 5-(5-formyl-2-methoxyphenyl)-4-[(4-methyl-1H-indol-5-yl)amino]nicotinonitrile]
6 nM | Cc1c(Nc2c(C#N)cncc2-c2ccc(CN3CCN(C)CC3)s2)ccc2[nH]ccc12 [Compound 464, 4-[(4-methyl-1H-indol-5-yl)amino]-5-{5-[(4-methylpiperazin-1-yl)methyl]-2-thienyl}nicotinonitrile]
8 nM | Cc1c(Nc2c(C#N)cncc2-c2ccc(CN(C)C)cc2)ccc2[nH]ccc12 [Compound 452, 5-{4-[(dimethylamino)methyl]phenyl}-4-[(4-methyl-1H-indol-5-yl)amino]nicotinonitrile]
22 nM | Cc1c(Nc2c(C#N)cncc2-c2ccccn2)ccc2[nH]ccc12 [Compound 565, 4′-[(4-methyl-1H-indol-5-yl)amino]-2,3′-bipyridine-5′-carbonitrile]
100 nM | COc1cc(Br)c(-c2cncc(C#N)c2Nc2ccc3[nH]ccc3c2C)cc1OC [Compound 247, 5-(2-bromo-4,5-dimethoxyphenyl)-4-[(4-methyl-1H-indol-5-yl)amino]nicotinonitrile]
8 nM | Cc1c(Nc2c(C#N)cncc2-c2cc(C=O)co2)ccc2[nH]ccc12 [Compound 517, 5-(4-formyl-2-furyl)-4-[(4-methyl-1H-indol-5-yl)amino]nicotinonitrile]
